These are literature values, as cited in patent US8507276B2, “Tissue culture media used as a component of cosmetics” (La Prairie Group AG, priority 2003, dated 2013).

Where two headings read alike, the source gives them in different places.

For the compound `CCCCCCCCOC(=O)OCCCCCCCC` [Cetiol CC, Dicarpylyl Carbonate], the Polarity (nonpolar lipids) is reported as 31.7 mN/m.
As for C12-13 Alkyl Lactate [Cosmacol ELI], the Polarity (polar lipids) is listed as 8.8 mN/m.
Regarding C12-15 Alkyl Benzoate [Finsolv TN], for the setting “medium-polar lipids”, the Polarity is listed as 21.8 mN/m.
Turning to “Caprylic/Capric Triglyceride [Miglyol 812]”, the Polarity (medium-polar lipids) is 21.3 mN/m.
As to Cetearyl Isononanoate [Cetiol SN], under “medium-polar lipids”, the Polarity is 28.6 mN/m.
As to Decyl Olivate [Lipodermanol OL], the Polarity (nonpolar lipids) is given as 40.3 mN/m.
With Octyl Cocoate [Estol 1540 EHC], the Polarity (nonpolar lipids) is given as 30.0 mN/m.
Turning to “Propylene Glycol Dicaprylate/Dicaprate [Miglyol 840]”, the Polarity (polar lipids) was 18.7 mN/m.
